The text below walks through data of patent US6399380B1, “Native-state histoculturing skin extracellular support” (Anti-Cancer, Inc., priority 1991, dated 2002).

One series has as its system histocultured mouse skin. Here is the method: Samples of skin having an external surface area of about 10 mm^2 and a thickness of about one to two mm were excised from an athymic nude mouse and placed on a GELFOAM™ matrix immersed in Eagle's MEM containing about 0.2 mg/ml of gentamycin and about 10% (v/v) fetal bovine serum. Prior to use the matrix was soaked in the medium for four hours at 37° C. to equilibrate the matrix in the medium.
The skin samples were maintained on the matrix in the medium at a temperature of about 37° C. in a gassed incubator under a mixture of 95% air and 5% CO2. Viability was assessed as the uptakes of an indicator specific for viable cells (BCECF-AM) and an indicator specific for dead cells (propidium iodide, PI), or as the uptake of [^3H]-thymidine.
The fluorescent dye indicators BCECF-AM and PI (Molecular Probes, Eugene, Oreg.) were added directly to the medium at a final concentration of 5 micromolar. Incorporation of the dyes was microscopically evaluated about 30 min following addition of the dyes to the medium by optical scanning using an MRC-600 Confocal Imaging System (Bio-Rad, Richmond, Calif.) mounted on a Nikon Epithet equipped with a 10× Plane objective. Samples were observed using an optical section of about 4 microns.
Skin samples from athymic nude mice were cultured according to the method of Example 1. Viability was assessed before and after the addition of putative toxins using BCECF-AM and [^3H]-thymidine as indicators specific for viable cells and PI as an indicator specific for dead cells. The uptake of these indicators was determined according to the methods of Example 1.
An initial assessment of viability was made 2 days after initiation of the skin culture using BCECF-AM and PI. Immediately following this initial assessment, various concentrations of the toxins ethanol, doxorubicin or sodium hypochlorite were contacted with the skin samples. The final concentrations of the toxins varied from about 0.5% to about 70% (v/v) for ethanol, from about 29 to about 725 mgs/ml for doxorubicin and from about 0.6% to about 60.0% (v/v) for sodium hypochlorite.
The skin samples were contacted with ethanol, doxorubicin and sodium hypochlorite for about 5 min., for about 24 hours and for about 2 hours respectively. Following these contact times, the toxin-containing medium was replaced with fresh, non-toxin-containing medium and the skin samples reassessed for viability using BCECF-AM and PI Viability was assessed in the same region of the skin sample before and after contact with the toxin.
In this study, toxicity was expressed as a percent of killed cells. The fraction of killed cells (PI-positive cells) with respect to total cells (PI-positive (red) plus BCECF-AM-positive (green) cells) in treated cultures is measured with confocal fluorescence scanning microscopy and is compared to untreated controls to determine cytotoxicity. The percent of killed cells is expressed as the number of red cells after treatment minus the number of red cells before treatment, divided by the total number of cells (green cells after treatment plus red cells after treatment).
The effects of doxorubicin and sodium hypochlorite on skin toxicity were determined in an identical manner to that described above for ethanol.

In series [1] the test system is dermal, epidermal and follicle cells of histocultured mouse skin. Description: Skin toxicity assay: [3H]-thymidine uptake (percent cell proliferation), autoradiography. The series is classed as cell-based. The conditions noted are these: FIG. 6.
Method: [^3H]-Thymidine was added directly to the medium at a final concentration of 4 μCI/ml. Skin samples were maintained in the thymidine-containing medium for 3 days. After the 3 days, the skin cultures were washed with phosphate-buffered saline, pH 7.0, placed in histology capsules and fixed in 10% (v/v) formalin. The fixed skin cultures were then dehydrated, embedded in paraffin, sectioned and placed on slides by standard methods well known to those of skill in the histology art. The slides were deparaffinized, coated with Kodak NTB-2 emulsion, exposed for 5 days and developed. […]
In addition, skin samples contacted with doxorubicin were assessed for viability using the uptake of [^3H]-thymidine measured after 24 hr of toxin contact.
In this study, toxicity was expressed as percent cell proliferation. Percent cell proliferation was calculated as the ratio of, (1) percentage of cells labeled with [^3H]-thymidine to total cells in doxorubicin treated samples compared to (2) the percentage of [^3H]-thymidine labeled cells to total cells in control, untreated skin samples.
In the next series the test system is dorsal skin of mice. The conditions noted are these: mouse, in vivo. The procedure:
The in vivo assessment of toxicity was determined using a standard skin irritation test as set forth below.
Small pieces of gauze paper (about 1.5 cm^2 size), which have been soaked in different concentrations of sodium hypochlorite, were tightly put on 3 different sites on the dorsal surface of the mice. Skin sites were scored on a 1 to 4 scale for […] and edema ½ hour and 1 hour after removal of the sodium hypochlorite. The primary irritation index (PII) for each concentration of sodium hypochlorite was derived from the following formula: […]

With `COc1cccc2c1C(=O)c1c(O)c3c(c(O)c1C2=O)C[C@@](O)(C(=O)CO)C[C@@H]3O[C@H]1C[C@H](N)[C@H](O)[C@H](C)O1` [doxorubicin], the “toxicity (percent of killed cells) as a function of concentration” value in the series on histocultured mouse skin (doxorubicin about 29 to about 725 mgs/ml, 24 hours, FIG. 5) was “relatively proportional to the concentration of doxorubicin”. In addition, in series [1] (24 hour exposure to doxorubicin), the “percent cell proliferation ([3H]-thymidine labeled cells relative to control)” value is “dose-dependent decrease in cell proliferation”. For the same molecule, the “cell type in which toxicity was most pronounced” value in series [1] (24 hour exposure, dermal, epidermal and follicle cells compared) is recorded as “most pronounced in hair follicle cells”.
For the molecule `CCO` [ethanol], the “viability of skin sample after vs before treatment (live/dead staining)” value in the series with histocultured mouse skin (0.5% (v/v) or 5.0% ethanol, about 5 min, skin histocultured 2 days, FIG. 3) is recorded as “a large number of cells died”. Further, the “relative toxicity (loss in viability)” value with histocultured mouse skin (5.0% vs 0.5% ethanol, about 5 min, FIG. 3) is on record as “more toxic (a greater loss in viability) than was 0.5% ethanol”. For the same molecule, in the series on histocultured mouse skin (30%, 50% and 70% ethanol, data not shown), the loss of viability result is given as “increasing losses of viability above the extent of losses observed using 5% ethanol”. Moreover, the “percent of killed cells (toxicity) as a function of concentration” value with histocultured mouse skin (ethanol about 0.5% to about 70% (v/v), 5 minutes, skin histocultured two days, FIG. 4) is listed as “increases as the concentration of ethanol increases”.
`OCl` [sodium hypochlorite]: the “threshold of toxicity (percent of killed cells)” value with histocultured mouse skin (athymic nude, mouse) is “about 0.6%”. Besides, the “threshold of toxicity (primary irritation index)” value with dorsal skin of mice is recorded as “about 0.6%”.
